# In article PMC12811659:
# Columns and labels:
# [1] = not given; remark: listed apart in the source
# [2] = not given; remark: listed apart in the source
Compound,trans-isomer fraction after 520 nm irradiation [%],"trans-isomer fraction, native state [1] [%]",cis-isomer fraction after 365 nm irradiation [2] [%]
CC[C@H](C)[C@H](NC(=O)Cn1nc(C)c(/N=N/c2ccccc2)c1C)C(=O)N[C@@H](CO)C(=O)N[C@@H](C)C(=O)O,87,85,
CC[C@H](C)[C@H](NC(=O)Cn1nc(C)c(/N=N\c2ccccc2)c1C)C(=O)N[C@@H](CO)C(=O)N[C@@H](C)C(=O)O,,,> 98
